Test results: patent US4486437A, “Phthalidyl apovincaminate with cerebral eubolic activity” (Ausonia Farmaceutici s.r.l., priority 1982, dated 1984)
Read-outs that look alike come from different tables or passages of the source.

How the values were obtained:
[1] = Acute toxicity, single administration (LD50, Litchfield and Wilcoxon method); settings: in vivo, rat, read-out: LD50 (95% confidence limit)
Description: The toxicity of single administrations of AP 698 has been studied in the rat, treating the animals by the oral and intraperitoneal routes with various dosage levels of AP 698.
The LD50 values, determined by the Litchfield and Wilcoxon method (J. Pharmacol. Exp. Therap., 1949, 96, 99) are given in Table 1.

[2] = tested on: cerebral electrical activity in the waking rabbit; assay: Effect on deterioration of electrogenesis by cerebral ischaemia (EEG); type: in vivo
[3] = tested on: hypobaric hypoxia in the mouse; assay: Changes in mortality caused by hypobaric hypoxia (survival time); type: in vivo; settings: for Survival time (mean values ± standard error): 190 mmHg, controls 72,5 ± 3,5
Experimental: The experiments were conducted on mice confined in cages in which the pressure was reduced to a level (190 mmHg) which caused the death of the animals.
After determining the survival time of the controls, the effects of various dosage levels of AP 698 were studied.

isolated rabbit ileum = assay: Effect on the smooth musculature, isolated rabbit ileum
[4] = Enzyme hydrolysis in vitro, incubation with rat plasma; type: in vitro ADME; settings: apovincaminic acid formed measured by gas chromatography
Description: (§1) The pharmacokinetics of enzyme hydrolysis has been studied both in vitro and in vivo in the rat after oral administration of AP 698 labelled with tritium.

[5] = Pharmacokinetics in vivo after oral administration of tritium-labelled AP 698; settings: rat; for presence in the plasma: after oral AP 698
Description: as §1

[6] = post-ischaemic phase, contrary to controls
[7] = treated animals vs controls, i.v.
[8] = 16 mg/kg i.v., N.S. (MannWhitney)
[9] = 25,6 mg/kg i.v., significance 0.01 (MannWhitney)
[10] = 41,0 mg/kg i.v., significance 0.01 (MannWhitney)

## CCC12C=C(C(=O)OC3OC(=O)c4ccccc43)n3c4c(c5ccccc53)CCN(CCC1)C42 (stereo not drawn) [AP 698, 13a-ethyl-2,3,5,6,13a,13b-hexahydro-1H-indolo(3,2,1-de)pyrido(3,2,1-ij)(1,5)naphthyridin-12-phthalidyl carboxylate]
[1]; ip, i.p.
  LD50: 684 mg/kg
[1]; po, p.o.
  LD50: > 3000 mg/kg
[2]; Oryctolagus cuniculus, intravenous at the end of the ischaemic manoeuvre, dose-dependent, read-out: lowest dose with evident therapeutic effect
  minimal effective dose: 0.5 mg/kg
[2]; between the 10th and 20th minutes, contrary to controls
  amplitude of the theta rhythm: not reduced
[2]; between the 14th and the 25th minutes, vs controls
  (theta+beta)/(delta+alpha) ratios: decrease less than in the controls
[2]; [6]
  frequency of the theta rhythm: not increased
  relative representation times (theta rhythm): not dispersed
[2]; post-ischaemic phase, vs controls
  beta rhythm: less reduced than in the controls
[2]; [7]
  recovery of the EEG and of the cortical reactivity to stimulation: quicker recovery
  return to a trace comparable to that recorded before the ischaemic manoeuvre: return in a shorter time
[3]; [8]
  Survival time (mean values ± standard error): 67,5 ± 2,5 sec.
  Variation (survival time): -6,9%
[3]; [9]
  Survival time (mean values ± standard error): 116,3 ± 13,5 sec.
  Variation (survival time): +60,4%
[3]; [10]
  Survival time (mean values ± standard error): 157,9 ± 33,2 sec.
  Variation (survival time): +117,8%
[3]; mouse, various dosage levels
  survival time, protective effect on induced hypobaric hypoxia (in words): highly significant extension of the survival time with a substantial protective effect
Isolated rabbit ileum; isolated rabbit ileum, compared with vincamine under the same conditions
  myorelaxant activity: considerable myorelaxant activity, decidedly higher than that displayed by vincamine
Isolated rabbit ileum; musculature in basal conditions and made hypertonic with sodium or serotonin
  effect on the tonus and amplitude of the contractions, compared with vincamine: greater effect
[4]
  half-life: 7.3 min
[5]
  presence in the plasma: both unchanged AP 698 and apovincaminic acid in the plasma
[5]; oral, plasma, read-out: half-life of unchanged AP 698
  half-life: 72 min

## CCC12C=C(C(=O)O)n3c4c(c5ccccc53)CCN(CCC1)C42 (stereo not drawn) [apovincaminic acid]
[5]
  levels of apovincaminic acid following the administration of AP 698: persistent levels
  presence in the plasma: both unchanged AP 698 and apovincaminic acid in the plasma
